“Also recorded” adds a separate entry of the source.
Key:
[1] = system: hypothalamic cells of the apoaequorin-expressing mice; assay: Intracellular calcium ion increase (aequorin luminescence), hypothalamus; type: cell-based, mouse; settings: for increase of intracellular calcium concentration in hypothalamic cells (RLU per second): 1 μmol/L peptide, added at 25 seconds; for luminescence (intracellular calcium ion increase) in hypothalamus: peptide at final concentrations of 1 μmol/L and 5 μmol/L
Method: (§1) A hypothalamus, pituitary gland, kidney, heart, blood vessel, or a portion of brain tissue is collected from transgenic mice systemically expressing apoaequorin (WO02/010371) produced by introducing an apoaequorin gene expression vector into fertilized eggs. The obtained hypothalamus, pituitary gland, kidney, heart, blood vessel, or brain tissue is cut finely into pieces, suspended in a medium containing coelenterazine, and then incubated to incorporate coelenterazine into the cells to form aequorin (a complex of apoaequorin and coelenterazine). Since aequorin luminesces upon binding to intracellular calcium ions, the relative luminescence level in cells before and after addition of a medium containing the peptide or a pharmaceutically acceptable salt thereof is measured in a luminometer every second over time and is used as an indicator of intracellular calcium ion concentration. Increase in the relative luminescence level due to addition of the peptide or pharmaceutically acceptable salt thereof confirms that the peptide or pharmaceutically acceptable salt thereof has the activity to increase intracellular calcium ion concentration.
(§2) Whether Peptides 1 to 8 synthesized in Example 2 have the activity of increasing intracellular calcium ion concentration was investigated using the organs of transgenic mice introduced with the apoaequorin gene and systemically expressing apoaequorin (hereinafter referred to as apoaequorin-expressing mice). In apoaequorin-expressing mouse cells, light is emitted when apoaequorin binds to a calcium ion in the presence of the luminescent substrate coelenterazine and thus the intracellular calcium ion concentration can be monitored. Patent Document (WO02/010371) discloses the method for producing apoaequorin-expressing mice, method for evaluating biologically active substances that use biological samples derived from the mice, and experimental results of evaluating biologically active peptides using the mouse organs as shown below. […] Therefore, apoaequorin-expressing mice can be used in the evaluation of the physiological activities of novel peptides.
(§3) Apoaequorin-expressing mice were produced according to the method disclosed in Reference Example 4 of Patent Document (WO02/010371). The apoaequorin-expressing mice were sacrificed, individual organs including thymus, hypothalamus, spleen, bone, aorta, heart, kidney, adrenal gland, pancreas, pituitary gland, uterus, medulla oblongata, and spinal cord were removed; and each of the organs was cut into small cubes of approximately 1 to 2 mm^3. Next, in 5-mL tubes (Rohren-Tubes; manufactured by Sarstedt, No. 55.476), three portions of each of the prepared organs were added to 50 μL of a 10 μmol/L solution of coelenterazine (manufactured by Molecular Probes) dissolved in RPMI 1640 medium, and these were cultured at 37° C. for three hours. After culturing, RPMI 1640 medium was added, and then Peptides 1 to 5 dissolved in RPMI 1640 medium were added 25 seconds after the addition of RPMI 1640 until each peptide had final concentrations of 1 μmol/L and of 5 μmol/L, and the relative luminescence levels were measured every second immediately after the addition of RPMI 1640 medium by using a luminometer (AutoLumat LB953, manufactured by Berthold).

[2] = system: pituitary cells of the apoaequorin-expressing mice; assay: Intracellular calcium ion increase (aequorin luminescence), pituitary gland; type: cell-based, mouse; settings: for increase of intracellular calcium concentration in pituitary cells (RLU per second): added at 25 seconds; for luminescence (intracellular calcium ion increase) in pituitary gland: peptide at final concentrations of 1 μmol/L and 5 μmol/L
Method: as §1, §2, §3

[3] = system: thymus of apoaequorin-expressing mice; assay: Intracellular calcium ion increase (aequorin luminescence), thymus; type: cell-based, mouse; settings: peptide at final concentrations of 1 μmol/L and 5 μmol/L
Method: as §1, §2
(§4) Apoaequorin-expressing mice were produced according to the method disclosed in Reference Example 4 of Patent Document (WO02/010371). […] After culturing, RPMI 1640 medium was added, and then Peptides 1 to 5 dissolved in RPMI 1640 medium were added 25 seconds after the addition of RPMI 1640 until each peptide had final concentrations of 1 μmol/L and of 5 μmol/L, and the relative luminescence levels were measured every second immediately after the addition of RPMI 1640 medium by using a luminometer (AutoLumat LB953, manufactured by Berthold).

[4] = system: medulla oblongata of apoaequorin-expressing mice; assay: Intracellular calcium ion increase (aequorin luminescence), medulla oblongata; type: cell-based, mouse; settings: peptide at final concentrations of 1 μmol/L and 5 μmol/L
Method: as §1, §2, §3

[5] = system: nerve endings in the posterior pituitary gland of AVP-eGFP Tg rats; assay: Continuous measurement of AVP-eGFP fluorescence in rat posterior pituitary gland (vasopressin release); type: cell-based; settings: peptide at final concentration of 10^−6 M in perfusate, last five minutes; control (basal) taken as 1
Excerpt: In transgenic (Tg) rats produced using a fusion gene, which is a vasopressin (arginine vasopressin: AVP) gene inserted with the enhanced green fluorescent protein (eGFP) gene, eGFP is expressed specifically in AVP neurons of the hypothalamus-pituitary system and their axons (Ueta et al., Endocrinology, 146, 406-413, 2005). Vasopressin secretion-promoting activity can be measured using pituitary gland excised from such AVP-eGFP Tg rats.
The pituitary gland is excised from an AVP-eGFP Tg rat and placed in a chamber of a perfusion apparatus filled with perfusate (140 mM NaCl, 5 mM KCl, 10 mM HEPES, 10 mM glucose, 1.2 mM KH2PO4, 1.2 mM MgCl2, 2 mM CaCl2; the pH and osmotic pressure are adjusted to 7.37 and 295 to 300 mOsml, respectively). Laser beam (488 nm) from an excitation light irradiation device (^161C; manufactured by Spectra Physics), is irradiated onto the posterior pituitary gland through an optical fiber (GIF625-100; manufactured by Thorlabs). The eGFP fluorescent light as a result of excitation at nerve endings in the posterior pituitary gland is collected by a phototube (R6249HA; Hamamatsu Photonics) through another optical fiber. After conversion into an electric signal, it can be amplified with an amplifier (C7246; manufactured by Hamamatsu Photonics) to observe the change in the eGFP fluorescence. The amount of change serves as an indicator for the amount of change of AVP-eGFP present in the pituitary gland, and the vasopressin secretion-promoting activity of the VGF-related peptide or a pharmaceutically acceptable salt thereof can be measured.
Specifically, the recording time is set to 10 minutes. As a control (basal), only the perfusate is administered in the first five minutes. Then, a mixture of the perfusate and the VGF-related peptide or a pharmaceutically acceptable salt thereof prepared to have a final concentration of 10^−6 M is administered in the last five minutes. The amount of vasopressin secreted from the pituitary gland can be measured by observing changes in the eGFP fluorescence. […]

[6] = system: pancreatic cells of the apoaequorin-expressing mice; assay: Intracellular calcium ion increase (aequorin luminescence), pancreas; type: cell-based, mouse; settings: for luminescence (intracellular calcium ion increase) in pancreas: peptide at final concentrations of 1 μmol/L and 5 μmol/L
Method: as §1
Whether Peptides 1 to 8 synthesized in Example 2 have the activity of increasing intracellular calcium ion concentration was investigated using the organs of transgenic mice introduced with the apoaequorin gene and systemically expressing apoaequorin (hereinafter referred to as apoaequorin-expressing mice). In apoaequorin-expressing mouse cells, light is emitted when apoaequorin binds to a calcium ion in the presence of the luminescent substrate coelenterazine and thus the intracellular calcium ion concentration can be monitored. Patent Document (WO02/010371) discloses the method for producing apoaequorin-expressing mice, method for evaluating biologically active substances that use biological samples derived from the mice, and experimental results of evaluating biologically active peptides using the mouse organs as shown below. […]

[7] = system: cardiac cells of the apoaequorin-expressing mice; assay: Intracellular calcium ion increase (aequorin luminescence), heart; type: cell-based, mouse
Method: as §1, §2, §3

[8] = system: spleen of apoaequorin-expressing mice; assay: Intracellular calcium ion increase (aequorin luminescence), spleen; type: cell-based, mouse; settings: peptide at final concentrations of 1 μmol/L and 5 μmol/L
Method: as §1, §2, §4

[9] = system: aortic cells of the apoaequorin-expressing mice; assay: Intracellular calcium ion increase (aequorin luminescence), aorta; type: cell-based, mouse
Method: as §1, §2, §4

[10] = 1 μmol/L peptide, added at 25 seconds
[11] = peptide at final concentrations of 1 μmol/L and 5 μmol/L

| Substance | increase of intracellular calcium concentration in hypothalamic cells (RLU per second) [1] | luminescence (intracellular calcium ion increase) in hypothalamus [1] | increase of intracellular calcium concentration in pituitary cells (RLU per second) ([2]; 5 μmol/L peptide) | luminescence (intracellular calcium ion increase) in pituitary gland [2] | luminescence (intracellular calcium ion increase) in thymus [3] | luminescence (intracellular calcium ion increase) in medulla oblongata [4] | vasopressin release from nerve endings in the posterior pituitary gland (change in eGFP fluorescence) [5] | increase of intracellular calcium concentration in pituitary cells (RLU per second) ([2]; 1 μmol/L peptide) | luminescence (intracellular calcium ion increase) in pancreas [6] | increase of intracellular calcium concentration in cardiac cells (RLU per second) [7, 10] | luminescence (intracellular calcium ion increase) in heart [7, 11] | luminescence (intracellular calcium ion increase) in spleen [8] | increase of intracellular calcium concentration in aortic cells (RLU per second) [9, 10] | luminescence (intracellular calcium ion increase) in aorta [9, 11] | increase of intracellular calcium concentration in pancreatic cells (RLU per second) ([6]; 5 μmol/L peptide, added at 25 seconds) |
| --- | --- | --- | --- | --- | --- | --- | --- | --- | --- | --- | --- | --- | --- | --- | --- |
| Peptide 1: amino acid sequence at position 177 to 206 in human VGF (QQETAAAETETRTHTLTRVNLESPGPERVW; synthetic Peptide 1, VGF-related peptide, human VGF positions 177-206) | increase of intracellular calcium concentration | luminescence was observed | increase of intracellular calcium concentration | luminescence was observed | luminescence was observed | luminescence was observed | reduced eGFP fluorescence; also recorded: vasopressin release |  |  |  |  |  |  |  |  |
| Peptide 4: amino acid sequence at position 533 to 543 in human VGF (EEDEVYPPGPY; synthetic Peptide 4, VGF-related peptide, human VGF positions 533-543) | increase of intracellular calcium concentration | luminescence was observed |  | luminescence was observed |  |  |  | increase of intracellular calcium concentration | luminescence was observed |  |  |  |  |  |  |
| Peptide 7: amino acid sequence at position 400 to 417 in human VGF (QNALLFAEEEDGEAGAED; synthetic Peptide 7, VGF-related peptide, human VGF positions 400-417) | increase of intracellular calcium concentration | luminescence was observed |  | luminescence was observed |  |  |  | increase of intracellular calcium concentration |  | increase of intracellular calcium concentration | luminescence was observed | luminescence was observed | increase of intracellular calcium concentration | luminescence was observed |  |
| Peptide 10: amino acid sequence at position 485 to 503 in human VGF (NAPPEPVPPPRAAPAPTHV; synthetic Peptide 10, VGF-related peptide, human VGF positions 485-503) | increase of intracellular calcium concentration | luminescence was observed |  | luminescence was observed |  |  |  | increase of intracellular calcium concentration | luminescence was observed |  |  |  |  |  | increase of intracellular calcium concentration |
| Peptide 11: amino acid sequence at position 533 to 552 in human VGF (EEDEVYPPGPYHPFPNYIRP; synthetic Peptide 11, VGF-related peptide, human VGF positions 533-552) | increase of intracellular calcium concentration | luminescence was observed | increase of intracellular calcium concentration | luminescence was observed |  |  | reduced eGFP fluorescence; also recorded: vasopressin release |  |  |  |  |  |  |  |  |
| Peptide 12: amino acid sequence at position 556 to 585 in rat VGF (TLQPPASSRRRHFHHALPPARHHPDLEAQA; synthetic Peptide 12, VGF-related peptide, rat VGF positions 556-585) |  |  | increase of intracellular calcium concentration | luminescence was observed |  |  | reduced eGFP fluorescence; also recorded: vasopressin release |  |  |  |  |  |  |  |  |

From patent US20100075343A1, “NOVEL PEPTIDES” (priority 2007, published 2010)
